{
  "source": "patent US9221827B2",
  "about": "“Antimicrobial compounds and methods of making and using the same” (Melinta Therapeutics, Inc., priority 2011, dated 2015)",
  "data": [
    {"test_system": "Escherichia coli strain ATCC25922", "experiment": "standard microdilution assay to determine minimum inhibitory concentrations (MICs)", "type": "cell-based", "settings": "Escherichia coli strain ATCC25922, microdilution", "protocol": "(§1) The in vitro activity of the compounds of the present invention can be determined. Antimicrobial testing is typically performed to determine the minimum inhibitory concentration (MIC). Minimum inhibitory concentrations (MICs) are determined by the microdilution method in a final volume of 100 μl according to protocols outlined by The Clinical and Laboratory Standards Institute (CLSI). Performance standards for reference strains are assessed within the same experimental design to maintain quality control. See, for example, Clinical Laboratory Standards Institute: Methods for dilution antimicrobial susceptibility tests for bacteria that grow aerobically M7-A8. Approved Standard-Eighth Edition. Wayne, Pa.: CLSI; December 2008; and Clinical Laboratory Standards Institute: Performance Standards for Antimicrobial Susceptibility Testing M100-S20; Approved Standard-Twentieth Edition. Wayne, Pa.: CLSI; June 2010.\n(§2) The compounds of the present invention were tested for antimicrobial activity. […] The compounds were run against Escherichia coli strain ATCC25922 using a standard microdilution assay to determine minimum inhibitory concentrations (MICs). […] A “N/A” means that data is unavailable. It will be recognized by one skilled in the art that the compounds can be assessed against other bacterial organisms and that the presentation of data for activity against Escherichia coli is illustrative and in no way is intended to limit the scope of the present invention. The compounds of the present invention can be assayed against a range of other microorganisms depending upon the performance activity desired to be gathered. Furthermore, the “+”, “−”, and “N/A” representation and the selection of a cutoff value of 16 micrograms/ml is also illustrative and in no way is intended to limit the scope of the present invention.", "values": [
      {"smiles": "CC(N)CCCc1cc(-c2cc3cn(-c4ccc(C(C)NCCCNC(=N)N)cc4)c(=O)nc3[nH]2)c(F)c(C(F)(F)F)c1", "note": "(centres unmarked) [Compound 274]", "E. coli ATCC25922 MIC": "+ (a “+” indicates that the compound has an MIC value of 16 micrograms/ml or less)"},
      {"smiles": "N=C(N)NCCCNCc1ccc(-n2cc3cc(-c4cc(CCCCN)cc(-c5cccnc5)c4)[nH]c3nc2=O)cc1", "note": "[Compound 61]", "E. coli ATCC25922 MIC": "+ (a “+” indicates that the compound has an MIC value of 16 micrograms/ml or less)"},
      {"smiles": "N=C(N)NCCCNCc1ccc(-n2cc3cc(-c4cc(Cl)c(F)c(CCCCN)c4)[nH]c3nc2=O)cc1", "note": "[Compound 267]", "E. coli ATCC25922 MIC": "+ (a “+” indicates that the compound has an MIC value of 16 micrograms/ml or less)"},
      {"smiles": "C[C@H](N)COCc1cc(OC(F)(F)F)cc(-c2cc3cn(-c4ccc(CNCCCNC(=N)N)cc4)c(=O)nc3[nH]2)c1", "note": "[Compound 311]", "E. coli ATCC25922 MIC": "+ (a “+” indicates that the compound has an MIC value of 16 micrograms/ml or less)"},
      {"smiles": "CC(=O)Nc1cc(CCCCN)cc(-c2cc3cn(-c4ccc(CNCCCNC(=N)N)cc4)c(=O)nc3[nH]2)c1", "note": "[Compound 41]", "E. coli ATCC25922 MIC": "+ (a “+” indicates that the compound has an MIC value of 16 micrograms/ml or less)"},
      {"smiles": "C[S+]([O-])Cc1cc(CCCCN)cc(-c2cc3cn(-c4ccc(CNCCCNC(=N)N)cc4)c(=O)nc3[nH]2)c1", "note": "(centres unmarked) [Compound 2]", "E. coli ATCC25922 MIC": "+ (a “+” indicates that the compound has an MIC value of 16 micrograms/ml or less)"},
      {"smiles": "N=C(N)NCCCNCc1ccc(-n2cc3cc(-c4cc(CCCCN)cc([N+](=O)[O-])c4Cl)[nH]c3nc2=O)cc1", "note": "[Compound 115]", "E. coli ATCC25922 MIC": "+ (a “+” indicates that the compound has an MIC value of 16 micrograms/ml or less)"},
      {"smiles": "CC(C)(CN)CCc1ccc(F)c(-c2cc3cn(-c4ccc(CNCCCNC(=N)N)cc4)c(=O)nc3[nH]2)c1", "note": "[Compound 117]", "E. coli ATCC25922 MIC": "+ (a “+” indicates that the compound has an MIC value of 16 micrograms/ml or less)"},
      {"smiles": "N=C(N)NCCCNCc1ccc(-n2cc3cc(-c4cc(CCCCN)cc(OC(F)(F)F)c4)[nH]c3nc2=O)cc1", "note": "[Compound 221]", "E. coli ATCC25922 MIC": "+ (a “+” indicates that the compound has an MIC value of 16 micrograms/ml or less)"},
      {"smiles": "N=C(N)NCCCNCc1ccc(-n2cc3cc(-c4cc(CC[C@H](O)CN)cc(OC(F)(F)F)c4)[nH]c3nc2=O)cc1", "note": "[Compound 239]", "E. coli ATCC25922 MIC": "+ (a “+” indicates that the compound has an MIC value of 16 micrograms/ml or less)"},
      {"smiles": "CCC(N)COC(C)c1cc(-c2cc3cn(-c4ccc([C@H](C)NCCCNC(=N)N)cc4)c(=O)nc3[nH]2)cc(C(F)(F)F)c1", "note": "(some centres unmarked) [Compound 480]", "E. coli ATCC25922 MIC": "+ (a “+” indicates that the compound has an MIC value of 16 micrograms/ml or less)"},
      {"smiles": "C=CC(NCCCNC(=N)N)c1ccc(-n2cc3cc(-c4cc(CCCC(C)N)cc(Cl)c4F)[nH]c3nc2=O)cc1", "note": "(centres unmarked) [Compound 481]", "E. coli ATCC25922 MIC": "+ (a “+” indicates that the compound has an MIC value of 16 micrograms/ml or less)"},
      {"smiles": "CC(CN)Cc1cc(-c2cc3cn(-c4ccc(CNCCCNC(=N)N)cc4)c(=O)nc3[nH]2)cc(C(F)(F)F)c1", "note": "(centres unmarked) [Compound 242]", "E. coli ATCC25922 MIC": "+ (a “+” indicates that the compound has an MIC value of 16 micrograms/ml or less)"},
      {"smiles": "N=C(N)NCCCNCc1ccc(-n2cc3cc(-c4cc(CC5CC(N)C5)cc(C(F)(F)F)c4)[nH]c3nc2=O)cc1", "note": "(centres unmarked) [Compound 324]", "E. coli ATCC25922 MIC": "+ (a “+” indicates that the compound has an MIC value of 16 micrograms/ml or less)"},
      {"smiles": "C[C@H](N)CCCc1cc(-c2cc3cn(-c4ccc(CNCCCNC(=N)N)cc4)c(=O)nc3[nH]2)cc(C(F)(F)F)c1", "note": "[Compound 248]", "E. coli ATCC25922 MIC": "+ (a “+” indicates that the compound has an MIC value of 16 micrograms/ml or less)"},
      {"smiles": "Cc1c(Cl)cc(-c2cc3cn(-c4ccc(CNCCCNC(=N)N)cc4)c(=O)nc3[nH]2)cc1CCCCN", "note": "[Compound 109]", "E. coli ATCC25922 MIC": "+ (a “+” indicates that the compound has an MIC value of 16 micrograms/ml or less)"},
      {"smiles": "N=C(N)NCCCNCc1ccc(-n2cc3cc(-c4cc(CCCO)cc(OC(F)(F)F)c4)[nH]c3nc2=O)cc1", "note": "[Compound 60]", "E. coli ATCC25922 MIC": "− (a “−” indicates that the compound has an MIC value greater than 16 micrograms/ml)"},
      {"smiles": "CS(=O)(=O)CCc1cc(CCCCN)cc(-c2cc3cn(-c4ccc(CNCCCNC(=N)N)cc4)c(=O)nc3[nH]2)c1", "note": "[Compound 22]", "E. coli ATCC25922 MIC": "+ (a “+” indicates that the compound has an MIC value of 16 micrograms/ml or less)"},
      {"smiles": "C[C@H](N)COCc1cc(-c2cc3cn(-c4ccc([C@H](C)NCCCNC(=N)N)cc4)c(=O)nc3[nH]2)cc(C(F)(F)F)c1", "note": "[Compound 322]", "E. coli ATCC25922 MIC": "+ (a “+” indicates that the compound has an MIC value of 16 micrograms/ml or less)"},
      {"smiles": "N=C(N)NCCCNCc1ccc(-n2cc3cc(-c4cc(CCCCN)cc(OC(F)(F)F)c4F)[nH]c3nc2=O)cc1", "note": "[Compound 107]", "E. coli ATCC25922 MIC": "+ (a “+” indicates that the compound has an MIC value of 16 micrograms/ml or less)"},
      {"smiles": "N=C(N)NCCCNCc1ccc(-n2cc3cc(-c4cc(CCCN)cc(OC(F)(F)F)c4Cl)[nH]c3nc2=O)cc1", "note": "[Compound 225]", "E. coli ATCC25922 MIC": "+ (a “+” indicates that the compound has an MIC value of 16 micrograms/ml or less)"},
      {"smiles": "Cc1cc(CCCCN)cc(-c2cc3cn(-c4ccc(CNCCCNC(=N)N)cc4)c(=O)nc3[nH]2)c1F", "note": "[Compound 133]", "E. coli ATCC25922 MIC": "+ (a “+” indicates that the compound has an MIC value of 16 micrograms/ml or less)"}
    ]},
    {"test_system": "Escherichia coli strain ATCC25922", "experiment": "standard microdilution assay to determine minimum inhibitory concentrations (MICs)", "type": "cell-based", "settings": "Escherichia coli strain ATCC25922, standard microdilution assay", "protocol": "as §1, §2", "values": [
      {"smiles": "C[C@H](N)COCc1cc(SC(F)(F)F)cc(-c2cc3cn(-c4ccc(CNCCCNC(=N)N)cc4)c(=O)nc3[nH]2)c1", "note": "[Compound 344]", "E. coli ATCC25922 MIC": "+ (a “+” indicates that the compound has an MIC value of 16 micrograms/ml or less)"},
      {"smiles": "CCC[C@H](NCCCNC(=N)N)c1ccc(-n2cc3cc(-c4cc(CCC[C@H](C)N)cc(C(F)(F)F)c4)[nH]c3nc2=O)cc1", "note": "[Compound 427]", "E. coli ATCC25922 MIC": "+ (a “+” indicates that the compound has an MIC value of 16 micrograms/ml or less)"},
      {"smiles": "C[C@H](NCCCNC(=N)N)c1ccc(-n2cc3cc(-c4cc(C5CCC(CN)CC5)cc(Cl)c4F)[nH]c3nc2=O)cc1", "note": "(some centres unmarked) [Compound 451]", "E. coli ATCC25922 MIC": "+ (a “+” indicates that the compound has an MIC value of 16 micrograms/ml or less)"},
      {"smiles": "COC[C@H](N)CCCc1cc(Cl)c(F)c(-c2cc3cn(-c4ccc(CNCCCNC(=N)N)cc4)c(=O)nc3[nH]2)c1", "note": "[Compound 445]", "E. coli ATCC25922 MIC": "+ (a “+” indicates that the compound has an MIC value of 16 micrograms/ml or less)"},
      {"smiles": "C[C@H](NCCCNC(=N)N)c1ccc(-n2cc3cc(-c4cc(C[C@H]5C[C@H](N)C5)cc(C(F)(F)F)c4)[nH]c3nc2=O)cc1", "note": "[Compound 396]", "E. coli ATCC25922 MIC": "+ (a “+” indicates that the compound has an MIC value of 16 micrograms/ml or less)"},
      {"smiles": "C[C@H](N)c1ccc(-n2cc3cc(-c4cc(CCC5(CN)CC5)cc(C(F)(F)F)c4)[nH]c3nc2=O)cc1", "note": "[Compound 354]", "E. coli ATCC25922 MIC": "− (a “−” indicates that the compound has an MIC value greater than 16 micrograms/ml)"},
      {"smiles": "C[C@H](N)CCCc1cc2c(c(-c3cc4cn(-c5ccc([C@H](C)NCCCNC(=N)N)cc5)c(=O)nc4[nH]3)c1)OCCC2=O", "note": "[Compound 456]", "E. coli ATCC25922 MIC": "+ (a “+” indicates that the compound has an MIC value of 16 micrograms/ml or less)"}
    ]}
  ]
}
